Experimental data from patent US20220233556A1, “COMPOSITIONS AND METHODS FOR TREATING OPHTHALMIC CONDITIONS” (Medicon Pharmaceuticals, Inc., priority 2017, published 2022).
Read-outs that look alike come from different tables or passages of the source.

Legend:
[1] = test system: JNK and Erk1/2; assay: MAPK activation by phosphorylation (immunoblots) in human conjunctival cells; assay type: cell-based; conditions: PS 3.5 h
Method: FIGS. 6A and 6B illustrate that PS suppresses the activation of NF-κB and MAPKs. In FIG. 6A, NF-κB activation was determined by EMSA in cultured human conjunctival cells stimulated with TNFα (top) and in the ILG of rabbits with Con A-induced DED and treated for one week with either vehicle or PS (bottom). In FIG. 6B, immunoblots detecting the activation of MAPKs by phosphorylation in cultured human conjunctival cells treated with PS at the indicated concentrations for 3.5 h. Loading control: β-actin.
The conjunctiva cells used express only the JNK and Erk1/2 pathways.

[2] = PS levels in ocular tissues after topical gellan gum-based in-situ gel; assay type: in vivo, New Zealand white rabbits; conditions: New Zealand white, rabbit, gellan gum 0.5% in-situ gel, 2.4~3% PS, eye drops
Method: Composition: 2.4˜3% PS; 0.5% Gellan gum; 5% Vitamin E TPGS; 10% (2-hydroxypropyl)-β-cyclodextrin. Preparation Method: A Gellan gum solution was prepared by adding a certain amount of gellan gum to deionized water and heating the mixture to 90° C. with fast stirring (500 rpm). Once completely dissolved, the solution was filtered through a 0.22 μm filter. Then, PS and additional excipients were added to the system to achieve the above concentrations and stirred at 50° C. at 500 rpm for 30 minutes to allow complete dissolution.
Results: The above PS formulation was administered topically as eye drops to the eyes of New Zealand white rabbits. The levels of PS in ocular tissues at 2 h later were determined by HPLC.

[3] = Corneal levels of a PS 0.2% solution formulation after single topical application; assay type: in vivo; conditions: cornea, topical or ocular, 0.2 % PS solution (single application, volume not stated), mean ± SEM
Method: Another embodiment of this type of formulation is: 0.1% PS, 10% HP-β-CD, 4% Tween 80, 2.5% Vitamin E TPGS, 1.4% polyvinyl alcohol (PVA) (13,000-26,000 molecular weight), 0.001% polyquad. Another embodiment of this type of formulation is: 0.2% PS; 10% HP-β-CD; 4% Tween 80; 2.5% Vitamin E TPGS; 1.4% polyvinyl alcohol (PVA) (13,000-26,000 molecular weight); and 0.001% polyquad. Preparation method: PVA was dissolved into water by stirring at 95° C. for 6 h. All ingredients including the PVA solution and PS were added into a glass vial, stirred at 50° C. (in a water bath) for 4 h, and then stirred at RT overnight. The pH was adjusted to 7.4±0.2 with NaOH and the osmolarity to 280-320 mOsm with NaCl 18%. For a sterile final product, this solution was filtered through a […] film.
The corneal levels of a PS 0.2% formulation were determined after its single topical application to the surface of the eye.

[4] = Ocular PK study of PS nanoparticles (mPEG-PLA), topical eye drops; assay type: in vivo, New Zealand white rabbits; design: AUC(0-t) / AUC0-16h, cornea / AUC0-16h, conjunctiva: concentration or dose not given beside the values; conditions: for AUC(0-t) / Cmax: New Zealand white, rabbit, topical or ocular
Method: Composition: ˜3.0-3.5% PS, 96.5˜97% methoxy poly(ethylene glycol)-poly(lactide) (mPEG-PLA).
Preparation Method: Oil phase: 150 mg of PS and 1 g of PEG-PLA (Akina, Inc) were dissolved in 20 mL dichloromethane (DCM). Water phase: 365 mg of sodium cholate were dissolved in 60 ml of purified water. 5 mL of the oil phase was gently added into 15 mL of the water phase in a 50 mL Eppendorf conical tube. To create an emulsion, we used robe sonication for 2 min at 75% output (Branson 150, Fisher Scientific™, USA); the watt output was 12-13. The emulsion was transferred into a 100 mL beaker and stirred overnight at 600 rpm in a chemical hood until the DCM was fully evaporated. This was followed by centrifugation at 14,000 rpm for 1 h (Dupont, RC-5C). Then, the supernatant was transferred to another tube into which 3 mL of PBS were added to resuspend the nanoparticles. The nanoparticle solution was centrifuged for 6-7 seconds to remove aggregates. This supernatant was the final preparation.
Ocular PK study: PS formulated in nanoparticles as above was administered topically as eye drops to New Zealand white rabbits. The biodistribution of PS in ocular tissues at the indicated time points post administration was determined by HPLC.

[5] = Biodistribution of PS in human cadaveric eyes (ex vivo), PS nanoparticle solution; assay type: in vitro ADME; conditions: human eye ex vivo
Method: Human cadaveric eyes were obtained through the Lions Eye Bank for Long Island, Valley Stream, N.Y. They were preserved on ice and used within 2 h from removal from the donors.
The anterior surface of the human eye (corresponding to an area slightly larger than the palpebral fissure) was brought into direct contact with a PS nanoparticle (NP) solution (PS concentrations were 0.2%, 1% and 2%) and treated as above for the solution formulations of PS. […]

CCOP(=O)(OCC)OCCCCOC(=O)CC1=C(C)/C(=C/c2ccc([S+](C)[O-])cc2)c2ccc(F)cc21 (stereo not shown) [PS, phosphosulindac]
activation by phosphorylation of JNK and Erk1/2 [1]: profoundly suppressed | concentration at 2 h ([2]; aqueous humor, read-out: PS in Aqueous humor): 1.2 µM | concentration at 2 h ([2]; conjunctiva, read-out: PS in Conjunctiva): 24.1 µM | concentration at 2 h ([2]; cornea, read-out: PS in Cornea): 72 µM | Cmax [3]: 63.4 ± 10 µM | AUC(0-t) ([3]; read-out: AUC0-t, Cornea): 62.6 ± 10.2 µM·h | MRT inf ([3]; read-out: MRT0-inf—obs, Cornea): 60 ± 6 min | half-life ([3]; read-out: t1/2, Cornea (converted)): 42 ± 12 min | AUC(0-t) ([4]; aqueous humor, read-out: AUC0-16 h, Aqueous humor): 3.4 µM·h | Cmax ([4]; aqueous humor, read-out: Cmax, Aqueous humor): 2.6 µM | AUC(0-t) ([4]; ciliary body, read-out: AUC0-16 h, Ciliary body): 3.6 µM·h | Cmax ([4]; ciliary body, read-out: Cmax, Ciliary body): 2.6 µM | AUC(0-t) ([4]; conjunctiva, read-out: AUC0-16 h, Conjunctiva): 61.7 µM·h | Cmax ([4]; conjunctiva, read-out: Cmax, Conjunctiva): 26.7 µM | AUC(0-t) ([4]; cornea, read-out: AUC0-16 h, Cornea): 156 µM·h | Cmax ([4]; cornea, read-out: Cmax, Cornea): 101 µM | AUC(0-t) ([4]; iris, read-out: AUC0-16 h, Iris): 13.6 µM·h | Cmax ([4]; iris, read-out: Cmax, Iris): 5.2 µM | AUC(0-t) ([4]; sclera, read-out: AUC0-16 h, Sclera): 3.3 µM·h | Cmax ([4]; sclera, read-out: Cmax, Sclera): 2.1 µM | Cmax, conjunctiva ([4]; PS and its metabolites): 26.7 µM | Cmax, cornea ([4]; PS and its metabolites): 101.3 μm | PS in Cornea ([5]; 0.2% PS-NPs): 22.8 µM | PS in Iris ([5]; 0.2% PS-NPs): 8.0 µM | PS in Lens ([5]; 0.2% PS-NPs): 0.4 µM | PS in Retina ([5]; 0.2% PS-NPs): 2.2 µM | PS in Sclera ([5]; 0.2% PS-NPs): 30.7 µM | PS in Cornea ([5]; 1% PS-NPs): 58.8 µM | PS in Iris ([5]; 1% PS-NPs): 35.5 µM | PS in Lens ([5]; 1% PS-NPs): 1.6 µM | PS in Retina ([5]; 1% PS-NPs): 4.8 µM | PS in Sclera ([5]; 1% PS-NPs): 152.0 µM | PS in Cornea ([5]; 2% PS-NPs): 92.7 µM | PS in Iris ([5]; 2% PS-NPs): 17.4 µM | PS in Lens ([5]; 2% PS-NPs): 0.6 µM | PS in Retina ([5]; 2% PS-NPs): 1.2 µM | PS in Sclera ([5]; 2% PS-NPs): 113.0 µM
